# Measured values taken from paper PMC6829864, “Determination of Ligand Profiles for Pseudomonas aeruginosa Solute Binding Proteins” (International Journal of Molecular Sciences, 2019).
# Values joined by “and” are separate entries in the source; they are usually repeats but may differ in a detail not shown here. Identical values can stand only once. “Also recorded” adds a separate entry of the source. Where a SMILES comes first, the peptide text is derived from it.
# How the values were obtained:
# [1] = system: Pseudomonas aeruginosa PAO1; format: cell-based; conditions: chemoeffector 1 mM; for Chemotaxis: capillary assay, 30 min
# [2] = molecular target: T1, PA4497 (dppA2) (Pseudomonas aeruginosa, UniProt Q9HVS4); format: binding; conditions: arrays PM3B, PM6, PM7, PM8
# T1 sequence (Q9HVS4 25-532): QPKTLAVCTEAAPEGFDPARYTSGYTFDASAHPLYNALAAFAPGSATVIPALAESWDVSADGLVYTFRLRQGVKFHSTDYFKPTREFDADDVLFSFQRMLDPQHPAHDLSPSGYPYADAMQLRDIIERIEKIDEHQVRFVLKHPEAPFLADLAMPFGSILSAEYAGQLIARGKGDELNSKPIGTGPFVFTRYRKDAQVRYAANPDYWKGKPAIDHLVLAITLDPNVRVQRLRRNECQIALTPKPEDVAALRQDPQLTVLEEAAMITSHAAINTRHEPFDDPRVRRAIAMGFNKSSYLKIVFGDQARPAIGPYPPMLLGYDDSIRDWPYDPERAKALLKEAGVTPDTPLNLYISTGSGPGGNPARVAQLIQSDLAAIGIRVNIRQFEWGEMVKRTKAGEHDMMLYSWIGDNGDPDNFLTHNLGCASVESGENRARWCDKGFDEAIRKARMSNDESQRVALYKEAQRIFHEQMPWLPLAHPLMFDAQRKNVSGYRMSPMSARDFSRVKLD
# [3] = molecular target: T2, PA4500 (dppA3) (Pseudomonas aeruginosa, UniProt Q9HVS1); test: Isothermal titration calorimetry, PA4500; format: binding, Pseudomonas aeruginosa PAO1; conditions: 25 °C; for Kd: read-out: KD by ITC (converted)
# [4] = molecular target: T2, PA4500 (dppA3); test: DSF thermal shift ligand screening, PA4500; format: binding, Pseudomonas aeruginosa PAO1; conditions: arrays PM3B, PM6, PM7, PM8
# [5] = molecular target: T3, PA0222 (Pseudomonas aeruginosa, UniProt Q9I6R6); test: Isothermal titration calorimetry, PA0222; format: binding, Pseudomonas aeruginosa PAO1; conditions: 25 °C
# T3 sequence (Q9I6R6 29-352): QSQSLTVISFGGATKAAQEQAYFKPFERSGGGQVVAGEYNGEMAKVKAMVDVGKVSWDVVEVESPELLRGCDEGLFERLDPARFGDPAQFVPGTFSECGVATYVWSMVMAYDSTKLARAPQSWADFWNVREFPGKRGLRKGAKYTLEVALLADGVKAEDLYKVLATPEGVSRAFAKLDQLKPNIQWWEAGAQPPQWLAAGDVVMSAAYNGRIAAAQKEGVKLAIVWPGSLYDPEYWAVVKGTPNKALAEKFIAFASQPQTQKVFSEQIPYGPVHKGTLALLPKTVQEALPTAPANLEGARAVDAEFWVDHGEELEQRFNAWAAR
# [6] = molecular target: PA3610 (potD) (Pseudomonas aeruginosa, UniProt Q9HY16); test: Isothermal titration calorimetry, PA3610; format: binding, Pseudomonas aeruginosa PAO1; conditions: 25 °C, read-out: KD by ITC (converted)
# [7] = molecular target: PA3889 (opuCC) (Pseudomonas aeruginosa, UniProt Q9HXC4); test: Isothermal titration calorimetry, PA3889; format: binding, Pseudomonas aeruginosa PAO1; conditions: 25 °C
# [8] = molecular target: PA1074 (braC) (Pseudomonas aeruginosa, UniProt P21175); test: biochemical; format: binding, Pseudomonas aeruginosa PAO1
# [9] = molecular target: PA4913 (Pseudomonas aeruginosa, UniProt Q9HUQ0); test: DSF thermal shift ligand screening, PA4913; format: binding, Pseudomonas aeruginosa PAO1; conditions: Tm change vs ligand-free protein
# [10] = molecular target: PA1863 (modA) (Pseudomonas aeruginosa, UniProt Q9I2N2); test: biochemical; format: binding, Pseudomonas aeruginosa PAO1
# [11] = molecular target: PA1493 (cysP) (Pseudomonas aeruginosa, UniProt Q9I3L9); test: biochemical; format: binding, Pseudomonas aeruginosa PAO1; conditions: PA1493 (cysP); 25 °C
# [12] = molecular target: PA4500 (DppA3) (Pseudomonas aeruginosa PAO1) (UniProt Q9HVS1); test: ITC
# [13] = molecular target: PA4500 (DppA3) solute binding protein of Pseudomonas aeruginosa PAO1 (Pseudomonas aeruginosa PAO1) (UniProt Q9HVS1); test: differential scanning fluorimetry thermal shift assay
# [14] = molecular target: PA4497 (DppA2) solute binding protein of Pseudomonas aeruginosa PAO1 (Pseudomonas aeruginosa PAO1) (UniProt Q9HVS4); test: as above
# PA1074 (braC), sequence (P21175 27-373): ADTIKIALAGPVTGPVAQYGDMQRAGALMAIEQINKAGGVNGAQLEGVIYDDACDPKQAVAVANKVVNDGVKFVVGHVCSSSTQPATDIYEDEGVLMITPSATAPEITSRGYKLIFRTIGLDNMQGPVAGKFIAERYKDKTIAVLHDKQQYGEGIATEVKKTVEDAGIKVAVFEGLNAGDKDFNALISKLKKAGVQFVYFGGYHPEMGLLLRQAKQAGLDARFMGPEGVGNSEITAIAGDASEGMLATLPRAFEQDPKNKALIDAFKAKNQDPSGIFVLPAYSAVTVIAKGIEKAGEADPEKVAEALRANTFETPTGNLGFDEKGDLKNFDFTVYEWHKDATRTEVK
# PA4913, sequence (Q9HUQ0 28-374): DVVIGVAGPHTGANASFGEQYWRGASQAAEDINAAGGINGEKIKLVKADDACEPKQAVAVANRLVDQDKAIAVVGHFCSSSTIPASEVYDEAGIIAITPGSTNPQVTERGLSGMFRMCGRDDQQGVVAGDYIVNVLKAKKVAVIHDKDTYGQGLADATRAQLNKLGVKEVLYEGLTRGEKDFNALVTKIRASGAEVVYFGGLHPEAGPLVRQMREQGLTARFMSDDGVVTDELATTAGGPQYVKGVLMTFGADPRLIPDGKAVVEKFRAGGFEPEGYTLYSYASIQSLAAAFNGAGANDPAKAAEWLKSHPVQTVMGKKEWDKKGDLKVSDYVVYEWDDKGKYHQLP
# T2 sequence (Q9HVS1 25-533): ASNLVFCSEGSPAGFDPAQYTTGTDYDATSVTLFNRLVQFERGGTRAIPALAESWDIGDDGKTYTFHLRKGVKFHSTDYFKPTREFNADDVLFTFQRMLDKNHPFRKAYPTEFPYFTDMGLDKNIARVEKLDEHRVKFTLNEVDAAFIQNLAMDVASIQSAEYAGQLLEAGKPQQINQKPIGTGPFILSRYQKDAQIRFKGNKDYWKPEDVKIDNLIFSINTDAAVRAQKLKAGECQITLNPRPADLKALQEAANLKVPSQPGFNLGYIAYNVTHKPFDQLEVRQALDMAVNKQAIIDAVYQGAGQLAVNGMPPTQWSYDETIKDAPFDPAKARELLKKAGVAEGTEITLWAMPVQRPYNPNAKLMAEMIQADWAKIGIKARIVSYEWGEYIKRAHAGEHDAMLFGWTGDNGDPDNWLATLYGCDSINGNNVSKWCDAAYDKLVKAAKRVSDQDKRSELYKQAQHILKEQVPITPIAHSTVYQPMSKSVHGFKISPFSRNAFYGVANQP
# PA4500 (DppA3) solute binding protein of Pseudomonas aeruginosa PAO1 (Pseudomonas aeruginosa PAO1), sequence (Q9HVS1 25-533): as above
# PA4500 (DppA3) (Pseudomonas aeruginosa PAO1), sequence (Q9HVS1 25-533): as above
# PA1863 (modA), sequence (Q9I2N2 24-251): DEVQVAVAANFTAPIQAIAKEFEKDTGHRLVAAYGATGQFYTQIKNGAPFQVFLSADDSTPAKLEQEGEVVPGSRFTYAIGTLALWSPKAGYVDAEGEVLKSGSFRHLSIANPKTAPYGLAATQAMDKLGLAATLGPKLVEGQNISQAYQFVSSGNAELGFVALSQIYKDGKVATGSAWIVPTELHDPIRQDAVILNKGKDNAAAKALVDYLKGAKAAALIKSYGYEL
# PA1493 (cysP), sequence (Q9I3L9 23-332): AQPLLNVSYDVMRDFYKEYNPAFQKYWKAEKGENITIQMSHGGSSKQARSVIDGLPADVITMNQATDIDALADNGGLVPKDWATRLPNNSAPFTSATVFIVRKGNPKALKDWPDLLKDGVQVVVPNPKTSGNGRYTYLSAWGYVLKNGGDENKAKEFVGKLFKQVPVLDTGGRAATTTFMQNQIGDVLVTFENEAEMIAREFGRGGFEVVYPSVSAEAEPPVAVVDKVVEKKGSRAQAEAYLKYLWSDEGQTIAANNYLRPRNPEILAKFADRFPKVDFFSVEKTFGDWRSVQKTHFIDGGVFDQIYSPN
# PA3610 (potD), sequence (Q9HY16 21-354): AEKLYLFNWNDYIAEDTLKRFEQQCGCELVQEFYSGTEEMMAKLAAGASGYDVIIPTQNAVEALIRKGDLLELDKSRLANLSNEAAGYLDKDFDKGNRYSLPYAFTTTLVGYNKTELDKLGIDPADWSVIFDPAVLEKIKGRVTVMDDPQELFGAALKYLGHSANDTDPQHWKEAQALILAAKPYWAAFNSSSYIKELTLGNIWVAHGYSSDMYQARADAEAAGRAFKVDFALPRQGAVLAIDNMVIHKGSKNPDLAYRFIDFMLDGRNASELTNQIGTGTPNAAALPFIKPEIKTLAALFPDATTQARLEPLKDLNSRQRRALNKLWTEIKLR
# PA3889 (opuCC), sequence (Q9HXC4 24-311): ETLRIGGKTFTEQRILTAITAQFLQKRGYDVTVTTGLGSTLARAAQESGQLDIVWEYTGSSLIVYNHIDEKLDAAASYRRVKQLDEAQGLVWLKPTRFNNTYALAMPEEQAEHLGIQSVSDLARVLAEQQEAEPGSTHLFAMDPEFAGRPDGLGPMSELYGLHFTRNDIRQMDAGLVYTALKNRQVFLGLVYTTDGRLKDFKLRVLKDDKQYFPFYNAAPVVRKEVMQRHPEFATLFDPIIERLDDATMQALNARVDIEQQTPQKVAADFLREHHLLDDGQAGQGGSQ
compound,measurement,setting,value
C[C@H](N)C(=O)N[C@@H](C)C(=O)N[C@@H](C)C(=O)O [Ala-Ala-Ala],Chemotaxis,[1]; except molybdate 0.1 mM,No (Positive chemotaxis was considered when the number of bacterial cells per capillary was superior to 5000.)
same,Tm DSF (Tm increase),[2],9.1 °C
same,No Binding Observed by ITC,[3],absence of binding
C[C@H](N)C(=O)N[C@@H](C)C(=O)O [Ala-Ala] (H-Ala-Ala-OH),Tm DSF (Tm increase),[4],11 °C and 11.3 °C
same,Kd,[3],0.21 ± 0.02 µM
C[C@H](N)C(=O)NCC(=O)O [Ala-Gly] (H-Ala-Gly-OH),Chemotaxis,[1]; except molybdate 0.1 mM,No (Positive chemotaxis was considered when the number of bacterial cells per capillary was superior to 5000.)
C[C@H](N)C(=O)N[C@@H](Cc1c[nH]cn1)C(=O)O [Ala-His] (H-Ala-His-OH; N-terminus and C-terminus assumed),Tm DSF (Tm increase),[4],3.0 °C
same,Kd,[3],7.4 µM
C[C@H](N)C(=O)N[C@@H](Cc1ccccc1)C(=O)O [Ala-Phe],Tm DSF (Tm increase),[4],2.0 °C
same,Kd,[3],6.1 µM
C[C@H](N)C(=O)N[C@H](C(=O)O)[C@@H](C)O [Ala-Thr] (H-Ala-Thr-OH; N-terminus and C-terminus assumed),Tm DSF (Tm increase),[4],7 °C
same,Kd,[3],0.98 µM
"CCCC(=O)O [Butyrate, butyric acid]",No Binding Observed by ITC,[5],failed to bind
NCCCCCN [Cadaverine],Kd,[6],65 µM
C[N+](C)(C)CCO [Choline],No Binding Observed by ITC,[7],no binding heats were observed
C[C@@H](N)C(=O)O [D-Ala],No Binding Observed by ITC,[8],no binding was detected
same,Tm DSF (Tm increase),[9],6.8 °C
same,Chemotaxis,[1]; except molybdate 0.1 mM,"Yes [15, 41] Yes [15, 41] Yes [15, 41] Yes [15, 41] Yes [15, 41] Yes Yes [15, 41] n. d. (Positive chemotaxis was considered when the number of bacterial cells per capillary was superior to 5000.)"
same,Chemotaxis response in words,[1]; except molybdate 0.1 mM,very strong taxis
N[C@@H](CCC(=O)O)C(=O)N[C@@H](CCC(=O)O)C(=O)O [Glu-Glu] (H-Glu-Glu-OH),No Binding Observed by ITC,[3],absence of binding
C[C@H](NC(=O)CNC(=O)CN)C(=O)O [Gly-Gly-Ala],Chemotaxis,[1]; except molybdate 0.1 mM,No (Positive chemotaxis was considered when the number of bacterial cells per capillary was superior to 5000.)
same,Tm DSF (Tm increase),[2],7.6 °C
NCC(=O)NCC(=O)NCC(=O)O [Gly-Gly-Gly] (H-Gly-Gly-Gly-OH),Tm DSF (Tm increase),[2],4.4 °C
CC[C@H](C)[C@H](NC(=O)CNC(=O)CN)C(=O)O [Gly-Gly-Ile] (H-Gly-Gly-Ile-OH),Tm DSF (Tm increase),[2],5.1 °C
NCC(=O)NCC(=O)N[C@@H](Cc1ccccc1)C(=O)O [Gly-Gly-Phe] (H-Gly-Gly-Phe-OH),Tm DSF (Tm increase),[2],3.7 °C
NCC(=O)NC(Cc1ccccc1)C(=O)NC(Cc1ccccc1)C(=O)O (stereo not drawn) [Gly-Phe-Phe] (H-Gly-Phe-Phe-OH; configuration not given here),Tm DSF (Tm increase),[2],6.6 °C
NCC(=O)NC(CO)C(=O)O (stereo not shown) [Gly-Ser],Chemotaxis,[1]; except molybdate 0.1 mM,Yes (Positive chemotaxis was considered when the number of bacterial cells per capillary was superior to 5000.)
CC(C)[C@H](NC(=O)CN)C(=O)O [Gly-Val] (H-Gly-Val-OH),Tm DSF (Tm increase),[4],2.0 °C
same,Kd,[3],6.3 µM
C[C@H](N)C(=O)O [L-Ala],Kd,[8],210 nM
same,Tm DSF (Tm increase),[9],12.7 °C
same,No Binding Observed by ITC,[3],absence of binding
N[C@@H](CCO)C(=O)O [L-Homoserine],Kd,[8],720 nM
same,"Chemotaxis response, number of cells per capillary",[1]; corrected for buffer capillaries,"more than 300,000 cells per capillary"
CC[C@H](C)[C@H](N)C(=O)O [L-Ile],Kd,[8],280 nM
CC(C)[C@H](N)C(=O)O [L-Val],Kd,[8],70 nM
same,Tm DSF (Tm increase),[9],4.1 °C
CC(C)C[C@H](N)C(=O)NCC(=O)NCC(=O)O [Leu-Gly-Gly] (H-Leu-Gly-Gly-OH),Chemotaxis,[1]; except molybdate 0.1 mM,Yes (Positive chemotaxis was considered when the number of bacterial cells per capillary was superior to 5000.)
same,Tm DSF (Tm increase),[2],3.2 °C
CC(C)CC(N)C(=O)NC(CC(C)C)C(=O)NC(CC(C)C)C(=O)O (stereo not drawn) [Leu-Leu-Leu] (H-Leu-Leu-Leu-OH; configuration not given here),Tm DSF (Tm increase),[2],5.0 °C
[O]=[Mo](=[O])([O-])[O-] [Molybdate],Kd,"[10]; Affinity by ITC, PA1863 (modA), value as printed in text",~10 nM
same,Kd,"[10]; KD by ITC, PA1863 (modA), 25 °C",10 nM
same,No Binding Observed by ITC,[11],did not show any binding
N[C@@H](Cc1ccccc1)C(=O)NCC(=O)NCC(=O)O [Phe-Gly-Gly] (H-Phe-Gly-Gly-OH),Tm DSF (Tm increase),[2],8.3 °C
CC(C)[C@H](N)C(=O)N[C@@H](Cc1ccc(O)cc1)C(=O)N[C@H](C(=O)O)C(C)C [Val-Tyr-Val] (H-Val-Tyr-Val-OH),Chemotaxis,[1]; except molybdate 0.1 mM,Yes (Positive chemotaxis was considered when the number of bacterial cells per capillary was superior to 5000.)
same,Tm DSF (Tm increase),[2],5.0 °C
[O]=[V]([O-])([O-])[O-] [Vanadate],No Binding Observed by ITC,[10],did not reveal any binding
[O]=[Mn](=[O])([O-])[O-] [manganate],No Binding Observed by ITC,[10],did not reveal any binding
O=[Se](O)O [selenite],No Binding Observed by ITC,[11],did not show any binding
CCC(N)C(=O)O (stereo not drawn) [α-aminobutyrate],Tm DSF (Tm increase),[9],8.1 °C
Ala-Ala (peptide),Ka,[12],4.71e+06 M⁻¹
same,Tm increase (DSF),[13],11.3 °C
Ala-Ala-Ala (peptide),Tm increase (DSF),[14],9.1 °C
Ala-His (peptide),Ka,[12],134000 M⁻¹
same,Tm increase (DSF),[13],3 °C
Ala-Phe (peptide),Ka,[12],162000 M⁻¹
same,Tm increase (DSF),[13],2 °C
Ala-Thr (peptide),Ka,[12],1.09e+06 M⁻¹
same,Tm increase (DSF),[13],7 °C
Gly-Gly-Ala (peptide),Tm increase (DSF),[14],7.6 °C
Gly-Gly-Gly (peptide),Tm increase (DSF),[14],4.4 °C
Gly-Gly-Ile (peptide),Tm increase (DSF),[14],5.1 °C
Gly-Gly-Phe (peptide),Tm increase (DSF),[14],3.7 °C
Gly-Phe-Phe (peptide),Tm increase (DSF),[14],6.6 °C
Gly-Val (peptide),Ka,[12],157000 M⁻¹
same,Tm increase (DSF),[13],2 °C
Leu-Gly-Gly (peptide),Tm increase (DSF),[14],3.2 °C
Leu-Leu-Leu (peptide),Tm increase (DSF),[14],5 °C
Phe-Gly-Gly (peptide),Tm increase (DSF),[14],8.3 °C
Tungstate,Chemotaxis,[1]; except molybdate 0.1 mM,No (Positive chemotaxis was considered when the number of bacterial cells per capillary was superior to 5000.)
same,KD by ITC,"[10]; PA1863 (modA), 25 °C",ultra-tightly; also recorded: Ultratight
Val-Tyr-Val (peptide),Tm increase (DSF),[14],5 °C
phosphate,No Binding Observed by ITC,[11],did not show any binding
